Data taken from paper PMC7158045 (BMC Plant Biology, 2020).
Where a name gives a salt, the structure may show the parent alone.

Tests used:
Assay in all cases: biochemical
[1] = biological target: T1, ZmDRIK1-R187-P492 (Zea mays, UniProt C0P4K9); conditions: read-out: dTm B, DSF, Boltzmann fit, 0.1% DMSO
T1 construct: kinase domain, R187-P492
T1 sequence (C0P4K9 1-514): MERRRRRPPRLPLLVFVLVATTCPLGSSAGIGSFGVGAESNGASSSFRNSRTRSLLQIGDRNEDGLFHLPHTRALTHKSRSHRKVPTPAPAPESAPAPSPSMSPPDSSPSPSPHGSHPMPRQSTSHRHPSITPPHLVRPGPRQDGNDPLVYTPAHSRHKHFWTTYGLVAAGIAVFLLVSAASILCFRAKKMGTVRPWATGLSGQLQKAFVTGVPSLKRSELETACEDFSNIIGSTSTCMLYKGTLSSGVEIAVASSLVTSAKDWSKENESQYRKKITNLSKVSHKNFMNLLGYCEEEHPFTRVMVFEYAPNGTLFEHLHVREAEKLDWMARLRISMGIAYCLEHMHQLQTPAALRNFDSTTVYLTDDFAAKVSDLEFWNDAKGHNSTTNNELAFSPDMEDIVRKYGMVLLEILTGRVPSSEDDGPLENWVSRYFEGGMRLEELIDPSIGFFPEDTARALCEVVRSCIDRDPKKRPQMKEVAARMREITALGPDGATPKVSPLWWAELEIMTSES

[2] = biological target: T2, ZmDRIK1-K217-S514 (Zea mays, UniProt C0P4K9); conditions: read-out: dTm B, sheet ZmDRIK1-K217-S514;; DSF, Boltzmann fit, 0.1% DMSO
T2 construct: kinase domain, K217-S514
T2 sequence (C0P4K9 1-514): T1 sequence (C0P4K9 1-514)

[3] = biological target: T3, ZmDRIK1-K217-P492 (Zea mays, UniProt C0P4K9); conditions: read-out: dTm B, sheet ZmDRIK1-K217-P492;; DSF, Boltzmann fit, 0.1% DMSO
T3 construct: kinase domain, K217-P492
T3 sequence (C0P4K9 1-514): T1 sequence (C0P4K9 1-514)

[4] = biological target: T4, ZmDRIK1 (DROUGHT RESPONSIVE INACTIVE KINASE 1), kinase domain (Zea mays, UniProt C0P4K9); conditions: read-out: dTm B, sheet ZmDRIK1-R187-S514;; DSF, Boltzmann fit, 0.1% DMSO
T4 construct: gene ZEAMMB73_Zm00001d028770; ZmDRIK1-KD R187-S514 (kinase domain)
T4 sequence (C0P4K9 187-514): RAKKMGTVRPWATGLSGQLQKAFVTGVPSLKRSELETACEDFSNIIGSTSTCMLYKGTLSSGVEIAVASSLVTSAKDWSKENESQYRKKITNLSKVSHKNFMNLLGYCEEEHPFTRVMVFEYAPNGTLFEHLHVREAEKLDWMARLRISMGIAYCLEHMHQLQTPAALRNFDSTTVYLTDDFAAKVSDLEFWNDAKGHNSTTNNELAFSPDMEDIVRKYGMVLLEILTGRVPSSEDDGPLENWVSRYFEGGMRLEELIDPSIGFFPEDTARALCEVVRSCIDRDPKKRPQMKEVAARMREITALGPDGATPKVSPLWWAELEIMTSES

SMILES | ΔTm at 10 µM [1] [°C] | ΔTm at 10 µM [2] [°C] | ΔTm at 10 µM [3] [°C] | ΔTm at 10 µM [4] [°C]
COC(=O)[C@]12CCC(C)(C)C[C@H]1[C@H]1C(=O)C=C3[C@@]4(C)C=C(C#N)C(=O)C(C)(C)[C@@H]4CC[C@@]3(C)[C@]1(C)CC2 [Bardoxolone Methyl] | -1.1 | -1.7 | -4.07 | -2.89
Cn1cnc2c(F)c(Nc3ccc(Br)cc3Cl)c(C(=O)NOCCO)cc21 [Selumetinib (AZD6244)] | -0.268 | -0.433 | -1.37 | -0.69
O=C(Nc1cc(C(F)(F)F)cc(C(F)(F)F)c1)c1cc(Cl)ccc1O [IMD 0354] | 0.639 | 1.2 | 0.526 | -0.239
O=C1NC(=O)/C(=C/c2cccc(C(F)(F)F)c2)S1 [SMI-4a] | 0.139 | -0.218 | -1.12 | -0.708
CN(C)Cc1cccc(N=C(c2ccccc2)c2c(O)[nH]c3cc(C(=O)N(C)C)ccc23)c1 [BIX 02189] | -0.0835 | -0.274 | 0.0556 | -0.921
Cc1nc(NC(=O)N2CCC[C@H]2C(N)=O)sc1-c1ccnc(C(C)(C)C(F)(F)F)c1 [BYL719] | -0.328 | -0.465 | -0.718 | -0.448
COCCOc1ccc2c(c1)ncn2-c1ccc2cccc(N3CCC(N)CC3)c2n1 [CP-673451] | -0.00299 | 0.216 | 0.203 | -0.398
CC[C@H](Nc1ncnc2[nH]cnc12)c1nc2cccc(F)c2c(=O)n1-c1ccccc1 [CAL-101 (Idelalisib)] | -0.326 | -0.31 | -0.995 | -0.612
N#CC(=C(/N)Sc1ccccc1N)/C(C#N)=C(\N)Sc1ccccc1N [U0126-EtOH] | -0.611 | -0.582 | -1.09 | -1.26
COc1cc2ncc(-c3ccccc3)nc2cc1OC [Tyrphostin AG 1296] | -0.166 | -0.375 | -0.341 | -0.879
COc1ccc(-c2ccc3c(N4CCOC[C@@H]4C)nc(N4CCOC[C@@H]4C)nc3n2)cc1CO [AZD8055] | -0.00437 | -0.119 | -0.668 | -0.773
COc1cc2ncnc(Oc3cccc(NC(=O)Nc4cc(C(C)(C)C(F)(F)F)on4)c3)c2cc1OC [CEP-32496] | -0.956 | -0.917 | -0.207 | -0.0221
COc1ccc(S(=O)(=O)N(C(C)=O)c2ccccc2/C=C/c2cc[n+]([O-])cc2)cc1 [HMN-214] | -0.238 | -0.242 | -0.694 | -0.877
C#Cc1cccc(Nc2ncnc3cc(OCCOC)c(OCCO)cc23)c1 [OSI-420] | -0.201 | -0.412 | -0.652 | -1.2
Cc1cc([C@@H](C)Nc2ccccc2C(=O)O)c2nc(N3CCOCC3)cc(=O)n2c1 [AZD6482] | -0.2 | -0.29 | -1.04 | -0.715
Cc1cc(F)c(Nc2ncnc3cc(OCc4ccccc4)ccc23)cc1O [ZM 323881 HCl] | -1.9 | -0.146 | -0.816 | -1.06
C=CC(=O)Nc1cccc(Nc2nc(Nc3ccc(N4CCN(C(C)=O)CC4)cc3OC)ncc2C(F)(F)F)c1 [CO-1686 (AVL-301)] | -0.278 | -0.448 | -0.85 | -0.884
CNC(=O)c1cc(COc2nnc(Nc3ccc(Cl)cc3)c3ccoc23)ccn1 [Telatinib] | -0.226 | -0.252 | -0.739 | -0.862
COc1ccc(-c2nc(N3CCOCC3)c3sc(CN(C)c4ncc(C(=O)NO)cn4)cc3n2)cn1 [CUDC-907] | -0.136 | -0.228 | -1.08 | -0.531

SMILES | ΔTm at 10 µM [1] [°C] | ΔTm at 10 µM [2] [°C] | ΔTm at 10 µM [3] [°C] | ΔTm at 10 µM [4] [°C]
CC(C)N(CCC(=O)c1ccc2ccccc2c1)Cc1ccccc1 [ZM 39923 HCl] | -0.636 | -0.827 | -2.03 | -1.58
Cc1cc(Nc2ncc(Cl)c(Nc3ccccc3S(=O)(=O)C(C)C)n2)c(OC(C)C)cc1C1CCNCC1 [LDK378] | -0.522 | -0.431 | -1.23 | -0.744
COc1ccc(-c2ccc3c(N4CCOCC4)nc(N4C[C@@H](C)O[C@@H](C)C4)nc3n2)cc1CO [KU-0063794] | -0.299 | -0.302 | -1.21 | -0.516
COc1cccc(-c2cc(=O)c3ccccc3o2)c1N [PD98059] | -0.0775 | -0.33 | -1.13 | -1.1
CO[C@H]1C[C@@H]2CC[C@@H](C)[C@@](O)(O2)C(=O)C(=O)N2CCCC[C@H]2C(=O)O[C@H]([C@H](C)C[C@@H]2CC[C@@H](OP(C)(C)=O)[C@H](OC)C2)CC(=O)[C@H](C)/C=C(\C)[C@@H](O)[C@@H](OC)C(=O)[C@H](C)C[C@H](C)/C=C/C=C/C=C/1C [Ridaforolimus (Deforolimus)] | -0.365 | -0.213 | -1.84 | -0.675
CCN1CCN(Cc2ccc(-c3cc4c(N[C@H](C)c5ccccc5)ncnc4[nH]3)cc2)CC1 [AEE788 (NVP-AEE788)] | -0.159 | -0.297 | -0.494 | -0.878
Cc1ccc(NC(=O)c2cccc(N(C)C)c2)cc1NC(=O)c1ccc(O)cc1 [ZM 336372] | -0.214 | -0.418 | -0.965 | -1
N[C@@H]1CCCN(c2c(/C=C3\SC(=O)NC3=O)cccc2-c2ccccc2)C1 [AZD1208] | -0.181 | -0.249 | -0.752 | -0.564
Cc1nc(Nc2n[nH]c3c2CN(C(=O)N[C@H](CN(C)C)c2ccccc2)C3(C)C)c2sccc2n1 [PF-3758309] | -0.393 | -0.258 | -0.748 | -0.774
Oc1c2ccccc2c2c3c(cccc13)N=N2 [SP600125] | -0.115 | -0.115 | -1.06 | -0.63
CO[C@@H](C(=O)N1Cc2[nH]nc(NC(=O)c3ccc(N4CCN(C)CC4)cc3)c2C1)c1ccccc1 [Danusertib (PHA-739358)] | -0.184 | -0.209 | -0.905 | -0.644
Clc1ccc(Nc2nnc(Cc3ccncc3)c3ccccc23)cc1 [Vatalanib (PTK787) 2HCl] | -0.124 | -0.391 | -1.11 | -0.775
CCc1ccc(C=C2SC(=S)NC2=O)cc1 [10058-F4] | -0.741 | -0.172 | -1.02 | -1.27
CNCc1ccc(-c2cc(-c3nc(-c4ccc(S(=O)(=O)C(C)C)cc4)cnc3N)on2)cc1 [VE-822] | -0.196 | -0.454 | -0.634 | -0.91
CC(C)(C#N)c1ccc(N2C(=O)OCc3cnc4ccc(-c5cnc6ccccc6c5)cc4c32)cc1 [ETP-46464] | -0.423 | -0.552 | -1.05 | -0.702
COc1ccccc1-c1cc(Nc2cccc(CS(N)(=O)=O)c2)ncn1 [LDC000067] | 0.533 | 0.865 | 0.0733 | -0.172
O=C(O)c1ccc(Nc2ncc3c(n2)-c2ccc(Cl)cc2C(c2c(F)cccc2F)=NC3)cc1 [MLN8054] | -0.341 | -0.583 | -1.36 | -0.958
Cc1nc(Nc2ncc(C(=O)Nc3c(C)cccc3Cl)s2)cc(N2CCN(CCO)CC2)n1 [Dasatinib] | -0.493 | -0.388 | -1.24 | -0.74
